# Assay results published in paper PMC8151276, “An Integrated Approach toward NanoBRET Tracers for Analysis of GPCR Ligand Engagement” (Molecules, 2021).
# Target: T1, ADRB3 (Homo sapiens, UniProt P13945)
# T1 construct: purchased Promega (in-house HiBiT-GPCR construct library, NanoBRET)
# Assay: NanoBRET screen HiBiT-ADRB3 in HEK293
# Format: binding
# Procedure: Each tracer candidate was screened across the entire library of HiBiT-GPCR constructs using NanoBRET as the detection modality. As depicted in Figure 4A, the specificity of interactions was evaluated through decrease in BRET due to competitive displacement of a bound tracer by excess parental compound. Each tracer was analyzed for binding to each HiBiT-GPCR fusion in the absence and in the presence of competing parental compound. Briefly, HEK293 cells were transfected with HiBiT-GPCR constructs diluted into promoterless DNA to reduce expression and maximize translocation to the cell surface. Each tracer candidate was then screened at concentrations of 1 μM and 0.1 μM across cells expressing these fusions. Cells were treated for 1.5 h with tracer either alone or in the presence of 20 μM competing parental compound (i.e., control). BRET was measured upon addition of purified LgBiT and subsequent complementation with HiBiT genetically fused to a GPCR. The specificity of interactions was assessed through a decrease in BRET signal due to competitive displacement of the bound tracer. To further gauge the robustness of these interactions, the fold response over the control (i.e., BRETtracer/BRETcontrol) was calculated. We chose a 1.5-fold response, which translates to ≥7-fold signal over noise as the minimal threshold required to score an interaction as positive.
# HiBiT-GPCR DNA constructs were diluted in 10 mM Tris pH 8 to a final concentration of 0.01 μg/μL, arrayed in 96-well plates and stored at −20 °C. For transfection, HEK293 cells were suspended in Opti-MEM (without phenol red) supplemented with 2% fetal bovine serum (Seradigm) and 100 units/mL penicillin–streptomycin (Gibco) at a final concentration of 220,000 cells/mL and dispensed into white 96-well plates at 90 μL/well. Subsequent transfections and screens were carried using an Agilent Bravo Automated Liquid Handling Platform. First, the 96-well HiBiT DNA arrays were diluted 25-fold in Opti-MEM (without serum or phenol red) to a final concentration of 0.0004 μg/μL and 20 μL of the diluted DNAs were transferred into new 96-well plates. Next, promoterless carrier DNA (1 μg/μL) was diluted 25-fold (0.04 μg/μL) and then dispensed into the diluted arrays at 20 μL/well. Following brief mixing, Viafect transfection reagent (Promega) diluted 16-fold into Opti-MEM was dispensed into the plates at 40 μL/well. After mixing by pipetting, plates were incubated for 10 min on the pipetting station deck. The DNA-transfection reagent complexes were then added to plates containing cells. To facilitate the screen, 10 μL of DNA-transfection reagent complexes were added in duplicates to the top 4 and bottom 4 rows, resulting in two identical 48-well arrays per plate. Plates with transfected cells were incubated for 18–20 h at 37 °C/5% CO2. A screen of each tracer across the entire library using two different concentrations requires duplicate plates of transfected cells. Depending on the number of tracers being screened, transfections can be scaled up using the same ratios. The next day, for each tracer, four 20× screening solutions in tracer dilution buffer (Promega) were prepared: two duplicates at final concentration of 20 μM and two duplicates at a final concentration of 2 μM. […] The four resulting solutions were diluted 4-fold in Opti-MEM without serum or phenol red to generate 5× solutions (5 µM and 0.5 µM tracer +/− 100 μM competing compound). To screen the library, a BioTek MultiFlo FX liquid dispenser was used to dispense 22.5 µL of tracer solution to the top 4 rows and 22.5 µL tracer + competing compound solution to the 4 bottom rows. Plates were briefly mixed on an orbital shaker and incubated for 1.5 h at room temperature. […] Plates were briefly mixed on an orbital shaker and incubated for 15 min to allow complementation.
# T1 sequence (P13945 whole entry): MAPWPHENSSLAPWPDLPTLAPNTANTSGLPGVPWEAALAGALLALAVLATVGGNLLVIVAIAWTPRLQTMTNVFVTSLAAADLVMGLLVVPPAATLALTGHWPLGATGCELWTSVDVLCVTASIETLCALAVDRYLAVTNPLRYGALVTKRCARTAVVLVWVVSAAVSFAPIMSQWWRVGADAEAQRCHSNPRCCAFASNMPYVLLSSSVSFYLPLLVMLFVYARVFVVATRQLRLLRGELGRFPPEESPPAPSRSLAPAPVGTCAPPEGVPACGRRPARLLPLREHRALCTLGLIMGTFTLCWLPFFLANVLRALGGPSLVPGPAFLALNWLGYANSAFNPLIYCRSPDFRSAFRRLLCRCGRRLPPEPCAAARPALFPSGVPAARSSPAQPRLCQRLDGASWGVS
SMILES,"NanoBRET Fold Response (ADRB3, tracer 0.1μM)","NanoBRET Fold Response (ADRB3, tracer 1μM)",other results
O=C(CCc1ccc2n1[B-](F)(F)[N+]1=C(c3ccc[nH]3)C=CC1=C2)NCc1ccc(C(=O)NCCOCCC(=O)N[C@@H]2CC[C@@]3(O)[C@H]4Cc5ccc(O)c6c5[C@@]3(CCN4CC3CC3)[C@H]2O6)cc1 [Naltrexone-3-NB590],0.99,1.02,–
CN1CCN(C2=Nc3cc(Cl)ccc3N(CC(=O)NCCOCCOCCOCCOCCNC(=O)CCc3ccc4n3[B-](F)(F)[N+]3=C(c5ccc[nH]5)C=CC3=C4)c3ccccc32)CC1 [Clozapine-c-2-NB590],–,–,"NanoBRET Fold Response (ADRB3, 0.1μM tracer): 0.98; NanoBRET Fold Response (ADRB3, 1μM tracer): 0.96"
O=C(CCOCCOCCOCCOCCNC(=O)CCc1ccc2n1[B-](F)(F)[N+]1=C(c3ccc[nH]3)C=CC1=C2)NCCCN1CCN(C2=Nc3cc(Cl)ccc3Nc3ccccc32)CC1 [Clozapine-a-2-NB590],–,–,"NanoBRET Fold Response (ADRB3, 0.1μM tracer): 0.97; NanoBRET Fold Response (ADRB3, 1μM tracer): 0.99"
CCOC(=O)c1cc(C#N)c(N2CCC(C(=O)NS(=O)(=O)Cc3ccccc3/C=C/C(=O)NCCNC(=O)CCc3ccc4n3[B-](F)(F)[N+]3=C(c5ccc[nH]5)C=CC3=C4)CC2)nc1C [AZD1283-1-NB590],–,–,"NanoBRET Fold Response (ADRB3, 0.1μM): 1.09; NanoBRET Fold Response (ADRB3, 1μM): 1.04"
COc1ccc2[nH]c(-c3ccc(CNC(=O)CCOCCOCCOCCOCCNC(=O)CCc4ccc5n4[B-](F)(F)[N+]4=C(c6ccc[nH]6)C=CC4=C5)cc3)c(CCNC(C)=O)c2n1 [AzomelatoninICO9-2-NB590],–,–,NanoBRET Fold Response (0.1μM tracer): 1.00; NanoBRET Fold Response (1μM tracer): 1.11
CCCn1c(=O)c2[nH]c(-c3ccc(OCC(=O)NCCNC(=O)CCOCCNC(=O)c4ccc(CNC(=O)CCc5ccc6n5[B-](F)(F)[N+]5=C(c7ccc[nH]7)C=CC5=C6)cc4)cc3)nc2n(CCC)c1=O [XAC-3-NB590],1.11,1.05,–
COc1ccccc1N1CCN(CCCCN2C(=O)c3ccc(CNC(=O)CCOCCNC(=O)c4ccc(CNC(=O)CCc5ccc6n5[B-](F)(F)[N+]5=C(c7ccc[nH]7)C=CC5=C6)cc4)cc3C2=O)CC1 [NAN-190-3-NB590],1.03,0.92,–
CN(CCC=C1c2ccccc2CCc2ccccc21)C(=O)CCOCCOCCOCCOCCNC(=O)CCc1ccc2n1[B-](F)(F)[N+]1=C(c3ccc[nH]3)C=CC1=C2 [Amitriptyline-e-2-NB590],–,–,NanoBRET Fold Response (tracer at 1μM): 1.01
O=C(CCc1ccc2n1[B-](F)(F)[N+]1=C(c3ccc[nH]3)C=CC1=C2)NCc1ccc(C(=O)NCCOCCOCCNCC(O)COc2cccc3ccccc23)cc1 (stereo not drawn) [Propranolol-3-NB590],–,–,"NanoBRET Fold Response (ADRB3, 0.1μM): 1.47; NanoBRET Fold Response (ADRB3, 1μM): 1.17"
COc1ccc2c(n1)c(CCNC(C)=O)cn2CCNC(=O)CCc1ccc2n1[B-](F)(F)[N+]1=C(c3ccc[nH]3)C=CC1=C2 [Azamelatonin-1-NB590],–,–,NanoBRET Fold Response (0.1μM tracer): 1.01; NanoBRET Fold Response (1μM tracer): 1.06
O=C(CCOCCOCCOCCOCCNC(=O)CCc1ccc2n1[B-](F)(F)[N+]1=C(c3ccc[nH]3)C=CC1=C2)NCCCN1CCN(C2=Nc3ccccc3Oc3ccc(Cl)cc32)CC1 [Loxapine-a-2-NB590],1.01,0.93,–
N#CN/C(=N\CCNC(=O)c1ccc(N)cc1)NCCCOc1cccc(CN2CCCCC2)c1 [Aminopotentidine (unmodified)],–,–,"NanoBRET Fold Response (ADRB3, other tracers/Aminopotentidine (unmodified), 0.1μM): 1.02; NanoBRET Fold Response (ADRB3, other tracers/Aminopotentidine (unmodified), 1μM): 1.10"
COc1ccccc1N1CCN(CCCCN2C(=O)c3ccc(CNC(=O)CCOCCOCCOCCOCCNC(=O)CCc4ccc5n4[B-](F)(F)[N+]4=C(c6ccc[nH]6)C=CC4=C5)cc3C2=O)CC1 [NAN-190-2-NB590],0.98,–,–
CC(C)N(CC[C@H](c1ccccc1)c1cc(CCNC(=O)c2ccc(CNC(=O)CCc3ccc4n3[B-](F)(F)[N+]3=C(c5ccc[nH]5)C=CC3=C4)cc2)ccc1O)C(C)C [Tolterodine-BZ-NB590],0.93,0.99,–
O=C(CCc1ccc2n1[B-](F)(F)[N+]1=C(c3ccc[nH]3)C=CC1=C2)NCCOCCOCCNC(=O)OCCOCCN1CCN(C2=Nc3ccccc3Sc3ccccc32)CC1 [Quetiapine-a-2-NB590],1.08,0.99,–
CN1CCN(C2=Nc3cc(Cl)ccc3Nc3ccc(CNC(=O)CCOCCOCCOCCOCCNC(=O)CCc4ccc5n4[B-](F)(F)[N+]4=C(c6ccc[nH]6)C=CC4=C5)cc32)CC1 [Clozapine-b-2-NB590],–,–,"NanoBRET Fold Response (ADRB3, 0.1μM tracer): 1.01; NanoBRET Fold Response (ADRB3, 1μM tracer): 0.98"
CC(C)N(CC[C@H](c1ccccc1)c1cc(CCNC(=O)CCOCCOCCOCCOCCNC(=O)CCc2ccc3n2[B-](F)(F)[N+]2=C(c4ccc[nH]4)C=CC2=C3)ccc1O)C(C)C [Tolterodine-2-NB590],0.97,0.97,–
CN(C)CCC=C1c2ccccc2CCc2ccc(C(=O)NCCNC(=O)CCOCCOCCOCCOCCNC(=O)CCc3ccc4n3[B-](F)(F)[N+]3=C(c5ccc[nH]5)C=CC3=C4)cc21 [Amitriptyline-a-2-NB590],–,–,NanoBRET Fold Response (tracer at 0.1μM): 0.95; NanoBRET Fold Response (tracer at 1μM): 0.99
Cc1cc2c(s1)Nc1ccccc1N=C2N1CCN(CCCNC(=O)CCOCCOCCOCCOCCNC(=O)CCc2ccc3n2[B-](F)(F)[N+]2=C(c4ccc[nH]4)C=CC2=C3)CC1 [Olanzapine-a-2-NB590],1.05,0.89,–
N#CN=C(NCCCOc1cccc(CN2CCCCC2)c1)NCCNC(=O)CCOCCOCCOCCOCCNC(=O)CCc1ccc2n1[B-](F)(F)[N+]1=C(c3ccc[nH]3)C=CC1=C2 [Aminopotentidine-2-NB590],1.00,1.01,–
Cc1nc2n(c(=O)c1CCN1CCC(c3noc4cc(F)ccc34)CC1)CCCC2OC(=O)NCCOCCOCCOCCOCCNC(=O)CCc1ccc2n1[B-](F)(F)[N+]1=C(c3ccc[nH]3)C=CC1=C2 (stereo not drawn) [Risperidone-2-NB590],0.98,1.01,–
CN(C)CCC=C1c2ccccc2CCc2ccc(C(=O)NCCNC(=O)CCOCCOCCOCCOCCNC(=O)CCc3ccc4n3[B-](F)(F)[N+]3=C(c5ccc[nH]5)C=CC3=C4)cc21 [Amitriptyline-b-2-NB590],–,–,"NanoBRET Fold Response (tracer at 0.1μM, listed as amitriptyline-b-2-NB590): 1.15; NanoBRET Fold Response (tracer at 1μM, listed as amitriptyline-b-2-NB590): 1.02"
